# Source: patent US8288424B2, “Substituted tetrahydroimidazopyridine compounds and the use thereof in the treatment of pain and other conditions” (Gruenenthal GmbH, priority 2008, dated 2012)
# Molecular target: T1, KCNQ2/3 channels (Homo sapiens, UniProt O43525+O43526)
# T1 construct: expressed in transfected cells; host or cells: CHO-K1
# Assay: Fluorescence assay using a voltage-sensitive dye
# Assay type: cell-based
# Conditions: 10 μmol test substance; CHO-K1 cells expressing KCNQ2/3 channels; agonistic activity; read-out: % Stimulation [10 μmol] Average
# Method: Fluorescence Assay Using a Voltage-Sensitive Dye
# […] CHO-K1 cells expressing KCNQ2/3 channels are cultivated adherently at 37° C., 5% CO2 and 95% humidity in cell culture bottles (e.g. 80 cm^2 TC flasks, Nunc) with MEM Alpha Medium (1×, liquid, Invitrogen, #22571), 10% foetal calf serum (FCS) (Invitrogen, #10270-106, heat-inactivated) and the necessary selection antibiotics. Before being spread out for the measurements, the cells are washed with a 1×DPBS buffer without Ca^2+/Mg^2+ (e.g. Invitrogen, #14190-094) and detached from the bottom of the culture vessel by means of Accutase (PAA Laboratories, #L11-007) (incubation with Accutase for 15 min at 37° C.). The cell count then present is determined using a CASY™ cell counter (TCC model, Schärfe System) in order subsequently to apply 20,000 cells/well/100 μl of the described nutrient medium to 96-well measuring plates of the Corning™ CellBIND™ type (flat clear-bottom black polystyrene microplates, #3340). Incubation is then carried out for one hour at room temperature, without gassing or adjusting the humidity, followed by incubation for 24 hours at 37° C., 5% CO2 and 95% humidity.
# The voltage-sensitive fluorescent dye from the Membrane Potential Assay Kit (Red bulk format part R8123 for FLIPR, Molecular Devices™) is prepared by dissolving the contents of a vessel of Membrane Potential Assay Kit Red Component A in 200 ml of extracellular buffer (ES buffer, 120 mM NaCl, 1 mM KCl, 10 mM HEPES, 2 mM CaCl2, 2 mM MgCl2, 10 mM glucose; pH 7.4). After removal of the nutrient medium, the cells are washed with 200 μl of ES buffer, then covered with a layer of 100 μl of the dye solution prepared above and incubated for 45 min at room temperature with exclusion of light.
# The fluorescence measurements are carried out with a BMG Labtech FLUOstar™ or BMG Labtech POLARstar™ instrument (525 nm excitation, 560 nm emission, bottom-read mode). After incubation of the dye, 50 μl of the substances to be tested in the desired concentrations, or 50 μl of ES buffer for control purposes, are introduced into separate cavities of the measuring plate and incubated for 30 min at room temperature whilst being shielded from light. The fluorescence intensity of the dye is then measured for 5 min and the fluorescence value F1 of each well is thus determined at a given, constant time. 15 μl of a […] KCl solution ([…]) are then added to each well. The change in fluorescence is subsequently measured until all relevant measured values have been obtained (mainly 5-30 min). At a given time after KCl application, a fluorescence value F2 is determined, in this case at the time of the fluorescence peak.
# For calculation, the fluorescence intensity F2 is compared with the fluorescence intensity F1, and the agonistic activity of the target compound on the potassium channel is determined therefrom. F2 and F1 are calculated as follows:
# [formula] In order to determine whether a substance has an agonistic activity,
# [formula] for example, can be compared with
# [formula] of control cells.
# [formula] is determined by adding to the reaction batch only the buffer solution instead of the substance to be tested, determining the value F1K of the fluorescence intensity, adding the potassium ions as described above and measuring a value F2K of the fluorescence intensity. Then F2K and F1K are calculated as follows:
# [formula] A substance has an agonistic activity on the potassium channel when
# [formula] is greater than
# [formula] Independently of the comparison of
# [formula] it is also possible to conclude that a target compound has an agonistic activity if an increase in
# [formula] is to be observed as the dosage of the target compound increases. Calculations of EC50 and IC50 values are carried out with the aid of Prism 4 software (GraphPad Software™).
row,SMILES,activation at 10 µM [%]
1,"Cc1cccc(C2CCc3nc(C(=O)N4CCCC4)cn3C2)c1 (centres unmarked) [Compound 29, Pyrrolidin-1-yl(6-m-tolyl-5,6,7,8-tetrahydroimidazo[1,2-a]pyridin-2-yl)methanone]",26.2
2,"O=C(c1cn2c(n1)CCC(c1cccc(C(F)(F)F)c1)C2)N1CCCC1 (centres unmarked) [Compound 31, Pyrrolidin-1-yl(6-(3-(trifluoromethyl)phenyl)-5,6,7,8-tetrahydroimidazo[1,2-a]pyridin-2-yl)methanone]",17.6
3,"Cc1ccccc1C1CCc2nc(C(=O)N3CCN(c4cccc(C(F)(F)F)c4)CC3)cn2C1 (centres unmarked) [Compound 35, (6-o-Tolyl-5,6,7,8-tetrahydroimidazo[1,2-a]pyridin-2-yl)(4-(3-(trifluoromethyl)-phenyl)piperazin-1-yl)methanone]",20.9
4,"CCc1ccc(C2CCc3nc(C(=O)N4CCCC4)cn3C2)cc1 (centres unmarked) [Compound 37, (6-(4-Ethylphenyl)-5,6,7,8-tetrahydroimidazo[1,2-a]pyridin-2-yl)(pyrrolidin-1-yl)methanone]",15.5
5,"O=C(c1cn2c(n1)CCC(c1ccc(F)cc1)C2)N1CCC(Cc2ccccc2)CC1 (centres unmarked) [Compound 41, (4-Benzylpiperidin-1-yl)(6-(4-fluorophenyl)-5,6,7,8-tetrahydroimidazo[1,2-a]pyridin-2-yl)methanone]",29.4
6,"O=C(NCc1ccccc1)c1cn2c(n1)CCC(c1cc(C(F)(F)F)cc(C(F)(F)F)c1)C2 (centres unmarked) [Compound 43, N-Benzyl-6-(3,5-bis(trifluoromethyl)phenyl)-5,6,7,8-tetrahydroimidazo[1,2-a]pyridine-2-carboxamide]",16.3
7,"COc1ccc(N2CCN(C(=O)c3cn4c(n3)CCC(c3cc(C)c(OC)c(C)c3)C4)CC2)cc1 (centres unmarked) [Compound 44, (6-(4-Methoxy-3,5-dimethylphenyl)-5,6,7,8-tetrahydroimidazo[1,2-a]pyridin-2-yl)(4-(4-methoxyphenyl)piperazin-1-yl)methanone]",27.5
8,"O=C(c1cn2c(n1)CCC(c1cccc(F)c1)C2)N1CCN(c2cccc(C(F)(F)F)c2)CC1 (centres unmarked) [Compound 48, (6-(3-Fluorophenyl)-5,6,7,8-tetrahydroimidazo[1,2-a]pyridin-2-yl)(4-(3-(trifluoromethyl)phenyl)piperazin-1-yl)methanone]",33
9,"COc1c(C)cc(C2CCc3nc(C(=O)NCc4ccc(F)cc4)cn3C2)cc1C (centres unmarked) [Compound 49, N-(4-Fluorobenzyl)-6-(4-methoxy-3,5-dimethylphenyl)-5,6,7,8-tetrahydroimidazo-[1,2-a]pyridine-2-carboxamide]",15.1
10,"COc1cccc(C2CCc3nc(C(=O)N4CCC(Cc5ccccc5)CC4)cn3C2)c1 (centres unmarked) [Compound 50, (4-Benzylpiperidin-1-yl)(6-(3-methoxyphenyl)-5,6,7,8-tetrahydroimidazo[1,2-a]pyridin-2-yl)methanone]",25.7
11,"CC(CCc1ccccc1)NC(=O)c1cn2c(n1)CCC(c1cccc(F)c1)C2 (centres unmarked) [Compound 51, 6-(3-Fluorophenyl)-N-(4-phenylbutan-2-yl)-5,6,7,8-tetrahydroimidazo[1,2-a]pyridine-2-carboxamide]",16.2

# Continued, values first:
row,activation at 10 µM [%],SMILES
1,20.9,"O=C(c1cn2c(n1)CCC(c1cc(C(F)(F)F)cc(C(F)(F)F)c1)C2)N1CCCC1 (centres unmarked) [Compound 30, (6-(3,5-Bis(trifluoromethyl)phenyl)-5,6,7,8-tetrahydroimidazo[1,2-a]pyridin-2-yl)(pyrrolidin-1-yl)methanone]"
2,21.2,"O=C(c1cn2c(n1)CCC(c1cccc(C(F)(F)F)c1)C2)N1CCN(c2ccccc2F)CC1 (centres unmarked) [Compound 32, (4-(2-Fluorophenyl)piperazin-1-yl)(6-(3-(trifluoromethyl)phenyl)-5,6,7,8-tetrahydroimidazo[1,2-a]pyridin-2-yl)methanone]"
3,24.5,"COc1ccc(C2CCc3nc(C(=O)N4CCCC4)cn3C2)c(OC)c1 (centres unmarked) [Compound 33, (6-(2,4-Dimethoxyphenyl)-5,6,7,8-tetrahydroimidazo[1,2-a]pyridin-2-yl)(pyrrolidin-1-yl)methanone]"
4,32.2,"Cc1ccccc1C1CCc2nc(C(=O)N3CCCC3)cn2C1 (centres unmarked) [Compound 34, Pyrrolidin-1-yl(6-o-tolyl-5,6,7,8-tetrahydroimidazo[1,2-a]pyridin-2-yl)methanone]"
5,21.7,"O=C(c1cn2c(n1)CCC(c1cc(F)ccc1F)C2)N1CCCC1 (centres unmarked) [Compound 36, (6-(2,5-Difluorophenyl)-5,6,7,8-tetrahydroimidazo[1,2-a]pyridin-2-yl)(pyrrolidin-1-yl)methanone]"
6,25.9,"CC1(C)CC2CC(C)(CN2C(=O)c2cn3c(n2)CCC(c2ccc(F)cc2)C3)C1 (centres unmarked) [Compound 38, (6-(4-Fluorophenyl)-5,6,7,8-tetrahydroimidazo[1,2-a]pyridin-2-yl)(1,3,3-trimethyl-6-azabicyclo[3.2.1]octan-6-yl)methanone]"
7,17.8,"COc1ccc(C2CCc3nc(C(=O)NCc4cccc(C(F)(F)F)c4)cn3C2)cc1 (centres unmarked) [Compound 39, 6-(4-Methoxyphenyl)-N-(3-(trifluoromethyl)benzyl)-5,6,7,8-tetrahydroimidazo[1,2-a]pyridine-2-carboxamide]"
8,16.6,"CCc1ccc(C2CCc3nc(C(=O)NCCc4ccccc4)cn3C2)cc1 (centres unmarked) [Compound 40, 6-(4-Ethylphenyl)-N-phenethyl-5,6,7,8-tetrahydroimidazo[1,2-a]pyridine-2-carboxamide]"
9,18.1,"O=C(NCc1ccc2c(c1)OCO2)c1cn2c(n1)CCC(c1cc(C(F)(F)F)cc(C(F)(F)F)c1)C2 (centres unmarked) [Compound 42, N-(Benzo[d][1,3]dioxol-5-ylmethyl)-6-(3,5-bis(trifluoromethyl)phenyl)-5,6,7,8-tetrahydroimidazo[1,2-a]pyridine-2-carboxamide]"
10,63.5,"O=C(c1cn2c(n1)CCC(c1ccc(F)cc1)C2)N1CCN(c2cccc(C(F)(F)F)c2)CC1 (centres unmarked) [Compound 47, (6-(4-Fluorophenyl)-5,6,7,8-tetrahydroimidazo[1,2-a]pyridin-2-yl)(4-(3-(trifluoromethyl)phenyl)piperazin-1-yl)methanone]"
11,34.2,"CCc1ccc(C2CCc3nc(C(=O)NC(C)CCc4ccccc4)cn3C2)cc1 (centres unmarked) [Compound 52, 6-(4-Ethylphenyl)-N-(4-phenylbutan-2-yl)-5,6,7,8-tetrahydroimidazo[1,2-a]pyridine-2-carboxamide]"

# Same assay, conditions: CHO-K1 cells expressing KCNQ2/3 channels; agonistic activity
row,EC50 [µM],SMILES
1,6.35,"COc1ccc(CCNC(=O)c2cn3c(n2)CCC(c2ccc(Oc4ccccc4)cc2)C3)cc1OC (centres unmarked) [Compound 27, N-(3,4-Dimethoxyphenethyl)-6-(4-phenoxyphenyl)-5,6,7,8-tetrahydroimidazo[1,2-a]pyridine-2-carboxamide]"
2,9.38,"CCCCCNC(=O)c1cn2c(n1)CCC(c1ccc(Oc3ccccc3)cc1)C2 (centres unmarked) [Compound 28, N-Pentyl-6-(4-phenoxyphenyl)-5,6,7,8-tetrahydroimidazo[1,2-a]pyridine-2-carboxamide]"
3,7.98,"CCOc1ccccc1N1CCN(C(=O)c2cn3c(n2)CCC(c2cccc(C)c2)C3)CC1 (centres unmarked) [Compound 45, (4-(2-Ethoxyphenyl)piperazin-1-yl)(6-m-tolyl-5,6,7,8-tetrahydroimidazo[1,2-a]pyridin-2-yl)methanone]"
4,3.98,"COc1ccc(C2CCc3nc(C(=O)N4CCN(c5cccc(C(F)(F)F)c5)CC4)cn3C2)c(OC)c1 (centres unmarked) [Compound 46, (6-(2,4-Dimethoxyphenyl)-5,6,7,8-tetrahydroimidazo[1,2-a]pyridin-2-yl)(4-(3-(trifluoromethyl)phenyl)piperazin-1-yl)methanone]"
